Laboratory results from patent US20040047831A1, “Use of a cell extract of at least a plant of the family pontederiaceae as anti-pollution agent” (priority 2000, published 2004).

Test system: human keratinocytes
Test: Cytotoxicity of cadmium chloride toward human keratinocytes in culture (intracellular glutathione, monochlorobimane probe), in the presence or absence of hyacinth extract
Assay type: cell-based
Settings: 24 hours; for toxicity toward human keratinocytes: human keratinocytes in vitro
Description: Heavy metals such as cadmium, nickel, lead, mercury, etc. can lead to cytotoxicity on the cells of various organs including the skin. The cytotoxic effect of cadmium on human keratinocytes in culture was evaluated by means of a technique using a fluorescent probe to measure the level of intracellular glutathione (J. C. Fernandez Checa et al. 1990, R. Kannan et al. 1993).
The study was performed on a monolayer culture of human keratinocytes obtained from plastic surgeries. The cells are inoculated on D-3 into 96-well culture dishes at a rate of 25 000 cells/cm^2 in 100 μl of culture medium (calf serum-free defined medium, NR2, Biofluids). The incubations are performed in an incubator at 37° C. under a humid atmosphere enriched with 5% CO2.
The cells are treated for 24 hours with increasing concentrations (0, 10, 25, 50, 75, 100, 150 and 200 μM) of cadmium chloride (CdCl2) alone, so as to determine its cytotoxicity. In parallel, a treatment is performed under the same conditions, but in the presence of hyacinth extract (0.125%). The incubations are performed in an incubator at 37° C., [lacuna]% CO2 under a humid atmosphere.
At the end of the contact period, labeling of the intracellular glutathione is performed using a specific fluorescent probe: monochlorobimane (MCB).
Briefly, after treatment, rinse the cells with buffer (PBS) so as to remove the treatment solutions.
Add 100 μl per well of a 1 mM MCB solution over one hour at room temperature and protected from light.
Eliminate the MCB, and add 200 μl/well of PBS buffer.
Read on the spectrofluorimeter (excitation: 380 nm; emission: 485 nm).
The fluorescence obtained is proportional to the amount of glutathione conjugated to the MCB.
Calculate the concentration of CdCl2 that results in a 50% drop in the level of glutathione (=IC.50)

## [Cl][Cd][Cl] [cadmium chloride]
CdCl2 alone, human keratinocyte monolayer, concentration giving 50% drop in glutathione level/cell viability, 3 independent experiments, read-out: IC.50 of cadmium chloride without protecting agent, Mean ± SEM
  IC50: 43.7 µM
Listed as Cadmium chloride
  toxicity toward human keratinocytes: considerable toxicity
Listed as cadmium
  toxicity toward human keratinocytes: strong toxicity
